Laboratory results as given in ChEMBL document CHEMBL1201862, “PubChem BioAssay data set” (2004).
Active and inactive are the calls of the source.

Experiments:
[1] = molecular target: T1, Calpain-2 catalytic subunit (Sus scrofa, UniProt P43367); assay: m-calpain protease blockers, concentration series – biochemical, fluorogenic peptide substrate, dose response (AID 1420); assay type: functional
T1 sequence (P43367 whole entry): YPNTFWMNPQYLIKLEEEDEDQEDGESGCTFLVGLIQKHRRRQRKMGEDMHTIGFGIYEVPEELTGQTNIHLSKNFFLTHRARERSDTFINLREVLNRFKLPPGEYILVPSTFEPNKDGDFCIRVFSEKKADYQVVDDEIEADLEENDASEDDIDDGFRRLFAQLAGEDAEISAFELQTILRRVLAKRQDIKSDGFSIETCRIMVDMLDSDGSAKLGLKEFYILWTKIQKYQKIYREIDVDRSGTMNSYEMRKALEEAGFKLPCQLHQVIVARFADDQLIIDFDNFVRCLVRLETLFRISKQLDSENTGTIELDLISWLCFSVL

Large T antigen = Large T antigen (Simian virus 40, UniProt P03070); assay type: functional, Betapolyomavirus macacae;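 further: Confirmatory-stage PubChem screen for compounds that inhibit SV40 T antigen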
Sequence of Large T antigen (P03070 whole entry): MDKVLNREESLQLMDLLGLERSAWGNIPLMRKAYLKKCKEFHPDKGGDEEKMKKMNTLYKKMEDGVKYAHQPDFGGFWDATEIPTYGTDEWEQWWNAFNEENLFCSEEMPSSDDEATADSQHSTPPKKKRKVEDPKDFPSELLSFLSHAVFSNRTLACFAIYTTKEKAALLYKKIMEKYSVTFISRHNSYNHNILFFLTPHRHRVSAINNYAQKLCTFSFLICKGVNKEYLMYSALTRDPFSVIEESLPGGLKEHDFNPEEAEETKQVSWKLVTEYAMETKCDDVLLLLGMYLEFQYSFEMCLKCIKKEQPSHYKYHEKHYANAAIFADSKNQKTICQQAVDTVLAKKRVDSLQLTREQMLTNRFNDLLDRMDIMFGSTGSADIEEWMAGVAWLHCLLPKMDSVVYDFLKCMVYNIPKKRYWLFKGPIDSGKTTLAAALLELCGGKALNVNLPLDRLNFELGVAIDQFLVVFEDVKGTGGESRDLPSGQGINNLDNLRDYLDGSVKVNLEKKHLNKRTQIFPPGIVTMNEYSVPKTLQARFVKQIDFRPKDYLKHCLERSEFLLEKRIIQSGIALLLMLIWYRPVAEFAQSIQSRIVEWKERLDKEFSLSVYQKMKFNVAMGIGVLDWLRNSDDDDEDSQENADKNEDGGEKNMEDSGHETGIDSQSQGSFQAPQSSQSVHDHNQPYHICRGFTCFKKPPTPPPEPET

[2] = non-specific 3'UTR reporter inhibition in Clone20-Shn3RL – cell-based, Renilla luciferase, cherry-picked, counter-screen for Shn3 inhibitor project, dose response (AID 624133); assay type: functional
[3] = reduction of Shn3 3'UTR-driven luciferase in osteoblasts – cell-based, Clone20 osteoblasts, firefly luciferase, cherry-picked, dose response (AID 624132); assay type: functional;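 further: firefly luciferase luminescence from reporter carrying the Shn3 3'UTR in osteoblasts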
[4] = molecular target: Voltage-dependent T-type calcium channel subunit alpha-1H (Homo sapiens, UniProt O95180); assay type: functional;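 further: channel activity triggered by adding a high calcium stimulation buffer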
Sequence of Voltage-dependent T-type calcium channel subunit alpha-1H (O95180 whole entry): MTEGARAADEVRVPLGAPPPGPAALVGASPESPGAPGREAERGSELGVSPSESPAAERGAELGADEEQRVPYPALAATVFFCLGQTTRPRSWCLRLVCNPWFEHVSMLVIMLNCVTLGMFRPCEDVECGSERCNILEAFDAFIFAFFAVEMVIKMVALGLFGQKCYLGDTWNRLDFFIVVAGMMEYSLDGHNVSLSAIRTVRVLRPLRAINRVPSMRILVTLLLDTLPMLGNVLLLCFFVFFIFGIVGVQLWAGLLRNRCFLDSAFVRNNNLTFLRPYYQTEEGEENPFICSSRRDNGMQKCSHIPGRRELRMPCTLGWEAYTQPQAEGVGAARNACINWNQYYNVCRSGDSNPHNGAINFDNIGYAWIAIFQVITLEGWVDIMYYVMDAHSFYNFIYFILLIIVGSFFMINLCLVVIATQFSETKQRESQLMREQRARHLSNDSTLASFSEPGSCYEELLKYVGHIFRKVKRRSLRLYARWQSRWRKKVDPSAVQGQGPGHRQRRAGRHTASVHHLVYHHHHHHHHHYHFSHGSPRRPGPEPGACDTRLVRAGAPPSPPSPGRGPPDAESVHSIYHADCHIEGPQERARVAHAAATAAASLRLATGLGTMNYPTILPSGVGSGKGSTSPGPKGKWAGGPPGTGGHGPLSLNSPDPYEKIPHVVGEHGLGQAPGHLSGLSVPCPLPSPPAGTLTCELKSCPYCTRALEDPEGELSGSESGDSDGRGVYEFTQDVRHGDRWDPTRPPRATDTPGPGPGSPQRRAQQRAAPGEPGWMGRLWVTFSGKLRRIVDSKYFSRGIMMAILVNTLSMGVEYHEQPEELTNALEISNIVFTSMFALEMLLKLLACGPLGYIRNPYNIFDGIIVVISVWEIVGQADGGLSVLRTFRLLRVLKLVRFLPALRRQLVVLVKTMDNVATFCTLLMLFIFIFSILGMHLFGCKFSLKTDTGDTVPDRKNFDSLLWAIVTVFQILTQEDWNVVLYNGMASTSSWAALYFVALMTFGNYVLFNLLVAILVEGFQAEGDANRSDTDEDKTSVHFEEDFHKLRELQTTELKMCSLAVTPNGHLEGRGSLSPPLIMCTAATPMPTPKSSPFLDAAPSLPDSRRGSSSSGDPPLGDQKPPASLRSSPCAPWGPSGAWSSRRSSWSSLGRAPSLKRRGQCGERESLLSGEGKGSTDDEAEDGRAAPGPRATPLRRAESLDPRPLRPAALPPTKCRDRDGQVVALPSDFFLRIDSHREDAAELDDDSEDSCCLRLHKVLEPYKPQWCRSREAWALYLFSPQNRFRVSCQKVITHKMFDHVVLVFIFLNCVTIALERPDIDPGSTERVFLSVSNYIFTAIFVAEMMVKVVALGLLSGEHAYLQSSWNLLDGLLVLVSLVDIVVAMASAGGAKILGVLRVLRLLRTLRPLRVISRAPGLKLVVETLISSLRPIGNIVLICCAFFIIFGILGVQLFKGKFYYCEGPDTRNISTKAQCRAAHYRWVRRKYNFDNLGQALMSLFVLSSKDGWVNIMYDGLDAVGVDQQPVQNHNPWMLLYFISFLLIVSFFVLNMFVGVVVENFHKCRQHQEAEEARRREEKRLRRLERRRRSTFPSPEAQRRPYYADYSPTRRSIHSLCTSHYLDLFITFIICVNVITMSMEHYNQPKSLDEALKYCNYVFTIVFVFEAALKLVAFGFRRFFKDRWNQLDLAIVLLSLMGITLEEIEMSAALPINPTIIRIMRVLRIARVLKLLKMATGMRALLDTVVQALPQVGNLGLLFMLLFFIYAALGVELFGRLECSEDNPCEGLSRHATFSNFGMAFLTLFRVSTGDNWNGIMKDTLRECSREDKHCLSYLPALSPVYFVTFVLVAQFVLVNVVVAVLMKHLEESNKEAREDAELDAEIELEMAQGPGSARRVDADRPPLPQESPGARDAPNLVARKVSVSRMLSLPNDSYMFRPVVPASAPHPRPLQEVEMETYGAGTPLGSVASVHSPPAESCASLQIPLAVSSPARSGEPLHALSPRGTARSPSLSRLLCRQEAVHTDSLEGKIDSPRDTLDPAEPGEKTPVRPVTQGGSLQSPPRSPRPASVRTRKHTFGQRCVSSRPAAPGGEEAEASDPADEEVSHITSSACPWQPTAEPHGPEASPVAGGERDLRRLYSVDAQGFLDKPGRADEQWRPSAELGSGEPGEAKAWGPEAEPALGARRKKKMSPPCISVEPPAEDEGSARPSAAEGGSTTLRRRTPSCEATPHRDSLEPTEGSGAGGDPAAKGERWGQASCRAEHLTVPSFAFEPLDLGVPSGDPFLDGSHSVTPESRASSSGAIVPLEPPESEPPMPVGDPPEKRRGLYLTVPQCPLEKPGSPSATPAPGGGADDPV

[5] = molecular target: T2, Replicative DNA helicase DnaB (Mycobacterium tuberculosis, UniProt P9WMR3); assay: DnaB intein splicing inhibitors, dose response, biochemical, cell-free fluorescence (AID 449749); assay type: functional
T2 sequence (P9WMR3 whole entry): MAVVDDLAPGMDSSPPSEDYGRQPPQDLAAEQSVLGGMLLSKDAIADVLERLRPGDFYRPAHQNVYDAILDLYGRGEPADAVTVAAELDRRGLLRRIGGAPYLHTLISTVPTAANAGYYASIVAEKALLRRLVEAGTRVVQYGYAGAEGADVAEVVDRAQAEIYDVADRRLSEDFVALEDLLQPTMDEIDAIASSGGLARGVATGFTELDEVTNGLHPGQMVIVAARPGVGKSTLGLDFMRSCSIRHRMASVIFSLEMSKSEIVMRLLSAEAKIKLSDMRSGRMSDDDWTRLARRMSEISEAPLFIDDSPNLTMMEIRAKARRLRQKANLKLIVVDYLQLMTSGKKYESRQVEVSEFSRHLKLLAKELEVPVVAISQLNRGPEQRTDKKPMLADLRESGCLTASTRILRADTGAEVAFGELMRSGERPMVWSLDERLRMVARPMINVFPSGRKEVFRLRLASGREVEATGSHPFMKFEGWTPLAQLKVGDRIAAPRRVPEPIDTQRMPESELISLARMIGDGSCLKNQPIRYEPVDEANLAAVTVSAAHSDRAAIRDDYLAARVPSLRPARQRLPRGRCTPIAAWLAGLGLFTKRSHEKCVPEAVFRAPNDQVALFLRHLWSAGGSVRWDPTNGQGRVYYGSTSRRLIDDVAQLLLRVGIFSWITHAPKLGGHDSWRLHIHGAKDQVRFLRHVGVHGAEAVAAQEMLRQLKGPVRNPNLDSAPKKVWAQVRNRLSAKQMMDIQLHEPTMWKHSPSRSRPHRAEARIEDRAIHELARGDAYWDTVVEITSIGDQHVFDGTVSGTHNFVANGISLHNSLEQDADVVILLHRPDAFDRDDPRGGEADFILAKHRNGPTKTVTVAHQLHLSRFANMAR

Protein RecA = molecular target: T3, Protein RecA (Mycobacterium tuberculosis, UniProt P9WHJ3); assay: Fluorescence Cell-Free Homogeneous Dose Retest to Identify Inhibitors of RecA-Intein Splicing Activity. [Related pubchem assays (depositor defined):AID2097, AID2223, AID489010, AID492950]; assay type: functional
T3 sequence (P9WHJ3 whole entry): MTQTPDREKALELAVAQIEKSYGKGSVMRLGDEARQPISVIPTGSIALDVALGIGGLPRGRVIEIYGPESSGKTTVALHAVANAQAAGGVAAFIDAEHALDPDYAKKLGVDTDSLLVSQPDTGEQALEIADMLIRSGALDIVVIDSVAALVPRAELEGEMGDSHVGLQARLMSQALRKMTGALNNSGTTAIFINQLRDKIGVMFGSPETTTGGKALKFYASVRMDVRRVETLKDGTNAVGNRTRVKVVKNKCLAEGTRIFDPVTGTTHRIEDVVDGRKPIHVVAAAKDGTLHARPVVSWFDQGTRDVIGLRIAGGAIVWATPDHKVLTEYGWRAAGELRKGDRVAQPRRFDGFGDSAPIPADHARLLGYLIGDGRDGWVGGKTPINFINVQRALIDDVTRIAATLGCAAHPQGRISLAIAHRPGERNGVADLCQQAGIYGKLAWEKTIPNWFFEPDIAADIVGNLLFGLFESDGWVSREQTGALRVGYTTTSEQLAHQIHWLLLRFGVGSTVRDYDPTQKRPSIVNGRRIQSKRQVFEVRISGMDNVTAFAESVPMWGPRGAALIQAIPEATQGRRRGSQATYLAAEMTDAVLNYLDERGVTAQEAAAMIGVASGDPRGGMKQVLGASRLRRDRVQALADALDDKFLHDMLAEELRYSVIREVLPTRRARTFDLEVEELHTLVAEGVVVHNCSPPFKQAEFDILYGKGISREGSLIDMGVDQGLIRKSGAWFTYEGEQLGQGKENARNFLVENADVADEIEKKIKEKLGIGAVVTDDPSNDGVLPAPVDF

cells [6] = assay type: functional, cell-based
cells [7] = assay type: functional, cell-based; remark: listed apart in the source
[8] = viability of HCT116 lacking mutant beta-catenin – cell-based, human colon tumor, dose response (AID 1045); assay type: functional;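 further: HCT116 colon tumor cells with beta catenin knocked out; cells exposed to compound for 60 hours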
Cytochrome P450 2C19 = Cytochrome P450 2C19 (Homo sapiens, UniProt P33261); assay: Cytochrome panel assay with activity outcomes. Panel member name: p450-cyp2c19 Compounds with AC50 equal or less than 10 uM are considered active; assay type: functional; details: read-out: AC50
Sequence of Cytochrome P450 2C19 (P33261 whole entry): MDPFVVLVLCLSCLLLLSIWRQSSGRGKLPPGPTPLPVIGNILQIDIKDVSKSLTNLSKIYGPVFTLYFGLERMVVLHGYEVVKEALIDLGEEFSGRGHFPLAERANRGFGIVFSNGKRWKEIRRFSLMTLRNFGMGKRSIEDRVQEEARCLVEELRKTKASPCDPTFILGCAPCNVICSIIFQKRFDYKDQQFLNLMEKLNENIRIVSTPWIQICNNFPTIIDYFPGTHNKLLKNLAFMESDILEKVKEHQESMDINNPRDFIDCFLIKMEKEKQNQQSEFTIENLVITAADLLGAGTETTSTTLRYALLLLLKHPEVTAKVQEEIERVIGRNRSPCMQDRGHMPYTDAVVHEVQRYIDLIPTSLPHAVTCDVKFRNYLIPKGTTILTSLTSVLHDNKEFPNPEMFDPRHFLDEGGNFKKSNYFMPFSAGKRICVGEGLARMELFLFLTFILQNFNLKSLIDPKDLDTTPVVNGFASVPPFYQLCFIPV

[9] = viability of PTEN-deleted HCT116 cells – cell-based, HCT116 PTEN knockout, dose response (AID 1047); assay type: functional;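 further: HCT116 colon tumor cells with PTEN knocked out; cells exposed to compound for 60 hours before readout; potency for loss of cell viability measured by luminescence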
Cytochrome P450 3A4 = Cytochrome P450 3A4 (Homo sapiens, UniProt P08684);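 further: CYP3A4 tested as one member of a cytochrome P450 panel screen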
Sequence of Cytochrome P450 3A4 (P08684 whole entry): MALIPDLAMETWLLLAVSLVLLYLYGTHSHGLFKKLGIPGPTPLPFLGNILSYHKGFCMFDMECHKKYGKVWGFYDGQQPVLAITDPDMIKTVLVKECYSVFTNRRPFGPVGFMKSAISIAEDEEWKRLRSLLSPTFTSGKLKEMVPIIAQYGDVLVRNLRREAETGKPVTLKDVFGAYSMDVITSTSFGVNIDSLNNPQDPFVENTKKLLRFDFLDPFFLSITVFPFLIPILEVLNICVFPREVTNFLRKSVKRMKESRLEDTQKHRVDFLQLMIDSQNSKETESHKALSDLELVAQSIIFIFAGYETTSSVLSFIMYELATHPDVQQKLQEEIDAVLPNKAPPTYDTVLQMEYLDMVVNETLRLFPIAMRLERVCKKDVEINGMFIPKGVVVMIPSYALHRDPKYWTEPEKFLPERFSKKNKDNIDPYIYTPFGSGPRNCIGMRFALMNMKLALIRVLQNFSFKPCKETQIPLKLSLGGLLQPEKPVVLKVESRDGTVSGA

[10] = Luminescence Cell-Based Dose Retest to Confirm Inhibitors of Cancer Stem Cells. [Related pubchem assays (depositor defined):AID2717, AID2721]; assay type: functional; details: Homo sapiens
[11] = viability of uninfected HEp-2 cells – cell-based, HTS, cytotoxicity control for RSV inhibitor project, dose response (AID 2410); assay type: functional; details: human respiratory syncytial virus
[12] = molecular target: Heat shock protein HSP 90-alpha (Homo sapiens, UniProt P07900); assay type: functional, organism-based
[13] = alpha-synuclein stem-loop luciferase translation blockers – H4 neuroglioma cells, luminescence, confirmation (AID 1988); assay type: functional, cell-based
[14] = luciferase reporter signal suppression in cells – H4 neuroglioma cells, luminescence, dose response (AID 1990); assay type: functional, cell-based
[15] = Luminescence Cell-Based Dose Response HTS to Identify Inhibitors of 5'UTR Stem-Loop Driven Prion Protein mRNA Translation in H4 Neuroglioblastoma Cells. [Related pubchem assays: 1827 (Project Summary), 1813 (Primary HTS)]; assay type: functional
[16] = molecular target: T4, Rac GTPase-activating protein 1 (Homo sapiens, UniProt Q9H0H5); assay: blockers of MgcRacGAP-driven Rac1 GTP hydrolysis – biochemical, ADP Hunter fluorescence, primary and confirmatory, confirmation (AID 624330); assay type: functional
T4 sequence (Q9H0H5 whole entry): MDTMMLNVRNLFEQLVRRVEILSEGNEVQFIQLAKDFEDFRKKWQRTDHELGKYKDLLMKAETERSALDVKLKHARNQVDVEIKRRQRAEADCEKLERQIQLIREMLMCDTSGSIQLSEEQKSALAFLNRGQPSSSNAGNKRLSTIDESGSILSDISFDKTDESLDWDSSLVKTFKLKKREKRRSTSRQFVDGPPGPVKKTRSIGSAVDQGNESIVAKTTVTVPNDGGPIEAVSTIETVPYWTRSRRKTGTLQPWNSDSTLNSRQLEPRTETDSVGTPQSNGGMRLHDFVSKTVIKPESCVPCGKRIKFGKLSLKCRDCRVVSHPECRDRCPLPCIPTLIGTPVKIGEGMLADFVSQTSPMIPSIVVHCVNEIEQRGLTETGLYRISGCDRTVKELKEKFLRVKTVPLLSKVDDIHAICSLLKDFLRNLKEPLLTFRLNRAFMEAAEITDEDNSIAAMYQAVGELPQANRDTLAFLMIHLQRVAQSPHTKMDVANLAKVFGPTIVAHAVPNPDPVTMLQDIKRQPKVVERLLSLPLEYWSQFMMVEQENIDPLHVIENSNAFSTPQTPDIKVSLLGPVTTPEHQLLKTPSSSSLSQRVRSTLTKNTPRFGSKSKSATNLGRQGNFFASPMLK

CC(C)=CC(=O)OCC(=O)NC(=O)NC(C)(C)C
IC50 [1]: > 50 µM (not active)

CNC(=S)N1CCN(c2ccc(OC)cc2)CC1
IC50 (Large T antigen): 34 µM (active)

O=C1CC(c2ccccc2)CC(=O)C1=CNc1cccc(Cl)c1 (stereo unspecified)
AC50 [2]: 19.8 µM (active) | AC50 [3]: 4.94 µM (active)

c1ccc(-c2ccccc2-c2nc(-c3cccnc3)no2)cc1
EC50 [4]: 8.07 µM (active)

COc1ccccc1-n1c([S-])c(C(=O)Nc2ccccc2C(F)(F)F)[n+]2ccc(C(=O)NCCO)cc12
IC50 [1]: 6.82 µM (not active)

O=C(CSC1=NCCS1)Nc1ccc(S(=O)(=O)N2CCCCCC2)cc1
AC50 [5]: 21.8 µM (active) | EC50 (Protein RecA): 10.1 µM (active) | EC50 [4]: 7.64 µM (active)

O=S(=O)(c1ccc2c(c1)CCCN2)N1CCCC2CCCCC21 (stereo unspecified)
IC50 [1]: 12.4 µM (not active)

CC(=O)Nc1ccc(S(=O)(=O)N2CCc3c(Cl)cccc3C2)cc1
EC50 [4]: 4.82 µM (active)

CCCCOc1ccc(C(=O)NCC(=O)OC2CCOC2=O)cc1 (stereo unspecified)
EC50 (cells [6]): > 350 µM (not active) | EC50 (cells [7]): > 350 µM (not active)

O=C(N/N=C1/CCCc2ccccc21)c1cc([N+](=O)[O-])cc([N+](=O)[O-])c1
IC50 [1]: 21.8 µM (not active)

COc1ccc(-c2cc(C(=O)NC(Cc3cc4ccccc4[nH]3)C(=O)O)c(C)o2)cc1OC (stereo unspecified)
IC50 [1]: 4.12 µM (not active)

COc1ccc(CNC(=S)N/N=C/c2ccc(O)c(OC)c2)cc1
IC50 (Large T antigen): 27.7 µM (active) | EC50 (cells [6]): > 350 µM (not active) | EC50 (cells [7]): > 350 µM (not active)

COc1ccc(CC(=O)Nc2ccc(-c3noc(-c4cccc(OC)c4)n3)cc2)cc1
EC50 [8]: 11.8 µM (active) | AC50 (Cytochrome P450 2C19): 4.47 µM (inconclusive) | EC50 [9]: 14.9 µM (active) | AC50 (Cytochrome P450 3A4): 1 µM (inconclusive)

CC(C)Sc1oc(-c2ccco2)nc1S(=O)(=O)c1ccc(F)cc1
EC50 [4]: 7.9 µM (active)

CCNc1nc(NCC)n2c(SC(C(=O)Nc3cc(Cl)cc(Cl)c3)c3ccccc3)nnc2n1 (stereo unspecified)
AC50 [10]: 1.59 µM (active) | EC50 [8]: 6.35 µM (active) | EC50 [9]: 5.99 µM (active) | CC50 [11]: 6.19 µM (active)

O=C1c2ccccc2C(=O)N1CCCCSc1nnnn1-c1ccccc1
IC50 [1]: 9.41 µM (not active)

CCOc1ccc2nc(Cl)c(C3CC(c4ccccc4)=NN3C(=O)c3cccs3)cc2c1 (stereo unspecified)
EC50 [8]: 3.9 µM (active) | EC50 [9]: 4.07 µM (active)

CC(O)CCc1ccc(O)cc1 (stereo unspecified)
IC50 (Large T antigen): 25.4 µM (active)

CCOC(=O)C(NC(C)=O)(N1CCOCC1)C(F)(F)F (stereo unspecified)
EC50 (cells [6]): > 350 µM (not active) | EC50 (cells [7]): > 350 µM (not active)

Cc1cccc(OCCCSc2nc3ccccc3[nH]2)c1
EC50 [4]: 3.47 µM (active)

C[C@@]12C(=O)Nc3ccc(Br)cc3C(=O)N1[C@H]1c3ccccc3OC[C@@H]1[C@@H]2c1ccccc1
AC50 [12]: 0.427 µM (active)

COc1cc([C@@H]2Oc3cc(C4Oc5cc(O)cc(O)c5C(=O)[C@H]4O)ccc3O[C@H]2CO)ccc1O (stereo partly specified)
IC50 (Large T antigen): 57.5 µM (active)

CCC(=O)n1nc(NCc2ccccc2OC)nc1NCc1ccccc1OC
EC50 [4]: 1.68 µM (active)

COCc1ccc(C(=O)N2CCCC(CCC(=O)NCc3ccccc3F)C2)o1 (stereo unspecified)
EC50 (cells [6]): > 350 µM (not active) | EC50 (cells [7]): > 350 µM (not active)

CC(C)(C)CC(C)(C)c1ccc(OCC(=O)N/N=C/c2ccc(S(=O)(=O)O)o2)cc1
IC50 [1]: > 50 µM (not active)

COc1ccc(OC)c2sc(N3CCN(C(=O)c4ccc5ncsc5c4)CC3)nc12
EC50 (cells [6]): > 350 µM (not active) | EC50 (cells [7]): > 350 µM (not active)

CCO/C(O)=C1\C(C)=NC2=C(C1c1ccc([N+](=O)[O-])cc1)S(=O)(=O)c1ccccc12 (stereo unspecified)
EC50 [13]: 23.9 µM (active) | EC50 [14]: 17.2 µM (active) | EC50 [8]: 31.4 µM (active) | EC50 [15]: 17.8 µM (active) | EC50 [9]: 29 µM (active)

Cc1c(Cl)cccc1NC(=S)N/N=C/c1ccccc1Cl
EC50 (cells [6]): > 350 µM (not active) | EC50 (cells [7]): > 350 µM (not active)

COc1cccc(C2=CC(c3cccs3)n3nnnc3N2)c1 (stereo unspecified)
IC50 [1]: 1.42 µM (not active)

CN(CCS(=O)(=O)c1ccc(Cl)cc1)Cc1cccnc1
EC50 (cells [6]): > 350 µM (not active) | EC50 (cells [7]): > 350 µM (not active)

Cc1nn(-c2ccc([N+](=O)[O-])cc2)c(O)c1/C=N/CCN1CCN(C(=O)c2cccc(F)c2)CC1
AC50 [12]: 5.99 µM (active)

COc1cc(CNc2ccc3c(c2)CCC3)cc(OC)c1O
IC50 (Large T antigen): > 100 µM (active)

O=C1N=C(NCc2ccccc2)S/C1=C/c1ccc(O)cc1
IC50 (Large T antigen): 11.7 µM (active) | IC50 [16]: 18.9 µM (active)
